Reference: patent US10040790B2, “Bicyclic heterocycles as FGFR inhibitors” (Incyte Corporation, priority 2013, dated 2018)

How the values were obtained:
Assay type in all cases: biochemical
FGFR2 = FGFR2 (Homo sapiens (Human), UniProt P21802); assay: FGFR Enzymatic Assay (FRET peptide phosphorylation), FGFR2; conditions: ATP 100 μM, enzyme 0.01 nM
Experimental: (§1) The inhibitor potency of the exemplified compounds was measured in an enzyme assay that measures peptide phosphorylation using FRET measurements to detect product formation. Inhibitors were serially diluted in DMSO and a volume of 0.5 μL was transferred to the wells of a 384-well plate. For FGFR3, a 10 μL volume of FGFR3 enzyme (Millipore) diluted in assay buffer (50 mM HEPES, 10 mM MgCl2, 1 mM EGTA, 0.01% Tween-20, 5 mM DTT, pH 7.5) was added to the plate and pre-incubated for 5-10 minutes. Appropriate controls (enzyme blank and enzyme with no inhibitor) were included on the plate. The assay was initiated by the addition of a 10 μL solution containing biotinylated EQEDEPEGDYFEWLE peptide substrate (SEQ ID NO: 1) and ATP (final concentrations of 500 nM and 140 μM respectively) in assay buffer to the wells. The plate was incubated at 25° C. for 1 hr. The reactions were ended with the addition of 10 μL/well of quench solution (50 mM Tris, 150 mM NaCl, 0.5 mg/mL BSA, pH 7.8; 30 mM EDTA with Perkin Elmer Lance Reagents at 3.75 nM Eu-antibody PY20 and 180 nM APC-Streptavidin). The plate was allowed to equilibrate for ˜1 hr before scanning the wells on a PheraStar plate reader (BMG Labtech).
(§2) FGFR1 and FGFR2 were measured under equivalent conditions with the following changes in enzyme and ATP concentrations: FGFR1, 0.02 nM and 210 μM, respectively and FGFR2, 0.01 nM and 100 μM, respectively. The enzymes were purchased from Millipore or Invitrogen.
(§3) GraphPad prism3 was used to analyze the data. The IC50 values were derived by fitting the data to the equation for a sigmoidal dose-response with a variable slope. Y=Bottom+(Top−Bottom)/(1+10^((Log IC50−X)*HillSlope)) where X is the logarithm of concentration and Y is the response.

FGFR3 = FGFR3 (Homo sapiens (Human), UniProt P22607); assay: FGFR Enzymatic Assay (FRET peptide phosphorylation), FGFR3; conditions: ATP 140 μM
Chain of FGFR3 (P22607 23-806): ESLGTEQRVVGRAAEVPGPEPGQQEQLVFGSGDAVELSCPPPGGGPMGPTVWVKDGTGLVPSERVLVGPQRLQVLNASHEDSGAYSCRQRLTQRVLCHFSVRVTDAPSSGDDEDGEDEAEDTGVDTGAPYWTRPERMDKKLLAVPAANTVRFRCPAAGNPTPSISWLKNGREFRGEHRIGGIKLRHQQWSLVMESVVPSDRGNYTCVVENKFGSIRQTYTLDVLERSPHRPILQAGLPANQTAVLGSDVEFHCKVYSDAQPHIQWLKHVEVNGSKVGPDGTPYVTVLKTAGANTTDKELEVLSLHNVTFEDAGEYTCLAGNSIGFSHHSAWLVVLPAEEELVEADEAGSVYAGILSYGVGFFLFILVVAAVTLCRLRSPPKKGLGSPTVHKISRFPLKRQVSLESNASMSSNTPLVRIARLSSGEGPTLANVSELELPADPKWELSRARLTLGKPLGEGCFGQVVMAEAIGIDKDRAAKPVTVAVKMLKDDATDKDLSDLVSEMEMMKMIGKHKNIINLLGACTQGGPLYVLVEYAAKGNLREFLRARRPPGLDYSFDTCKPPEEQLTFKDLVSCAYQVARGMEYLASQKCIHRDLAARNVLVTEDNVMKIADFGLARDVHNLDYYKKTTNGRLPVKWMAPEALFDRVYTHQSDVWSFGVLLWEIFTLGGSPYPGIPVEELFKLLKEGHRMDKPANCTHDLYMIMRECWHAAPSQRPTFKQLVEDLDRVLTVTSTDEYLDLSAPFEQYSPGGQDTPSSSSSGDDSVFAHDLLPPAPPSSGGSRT
Experimental: as §1, §3

FGFR1 = FGFR1 (Homo sapiens (Human), UniProt P11362); assay: FGFR Enzymatic Assay (FRET peptide phosphorylation), FGFR1; conditions: ATP 210 μM, enzyme 0.02 nM
Chain of FGFR1 (P11362 22-822): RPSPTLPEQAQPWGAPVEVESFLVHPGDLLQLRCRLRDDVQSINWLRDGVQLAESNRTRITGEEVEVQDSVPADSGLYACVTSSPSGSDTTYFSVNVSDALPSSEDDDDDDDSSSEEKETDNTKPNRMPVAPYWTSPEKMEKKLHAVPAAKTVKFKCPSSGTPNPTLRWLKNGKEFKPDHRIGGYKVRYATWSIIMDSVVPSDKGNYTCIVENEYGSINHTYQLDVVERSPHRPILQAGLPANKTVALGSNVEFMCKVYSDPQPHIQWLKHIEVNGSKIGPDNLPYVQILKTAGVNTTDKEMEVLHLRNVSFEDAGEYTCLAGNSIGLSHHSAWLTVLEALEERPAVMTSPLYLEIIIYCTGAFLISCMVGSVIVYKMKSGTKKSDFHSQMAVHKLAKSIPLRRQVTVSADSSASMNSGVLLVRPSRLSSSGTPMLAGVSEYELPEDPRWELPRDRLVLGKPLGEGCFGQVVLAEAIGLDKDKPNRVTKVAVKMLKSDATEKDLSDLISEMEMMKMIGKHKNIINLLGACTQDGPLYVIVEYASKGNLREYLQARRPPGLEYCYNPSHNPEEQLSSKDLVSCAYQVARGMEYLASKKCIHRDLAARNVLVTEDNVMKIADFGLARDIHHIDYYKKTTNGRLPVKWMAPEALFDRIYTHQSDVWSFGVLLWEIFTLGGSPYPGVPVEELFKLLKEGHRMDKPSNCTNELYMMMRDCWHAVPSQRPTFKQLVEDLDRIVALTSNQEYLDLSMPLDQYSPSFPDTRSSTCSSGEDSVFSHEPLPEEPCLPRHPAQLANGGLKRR
Experimental: as §1, §2, §3

Measured: IC50

Chain of FGFR2 (P21802 22-821): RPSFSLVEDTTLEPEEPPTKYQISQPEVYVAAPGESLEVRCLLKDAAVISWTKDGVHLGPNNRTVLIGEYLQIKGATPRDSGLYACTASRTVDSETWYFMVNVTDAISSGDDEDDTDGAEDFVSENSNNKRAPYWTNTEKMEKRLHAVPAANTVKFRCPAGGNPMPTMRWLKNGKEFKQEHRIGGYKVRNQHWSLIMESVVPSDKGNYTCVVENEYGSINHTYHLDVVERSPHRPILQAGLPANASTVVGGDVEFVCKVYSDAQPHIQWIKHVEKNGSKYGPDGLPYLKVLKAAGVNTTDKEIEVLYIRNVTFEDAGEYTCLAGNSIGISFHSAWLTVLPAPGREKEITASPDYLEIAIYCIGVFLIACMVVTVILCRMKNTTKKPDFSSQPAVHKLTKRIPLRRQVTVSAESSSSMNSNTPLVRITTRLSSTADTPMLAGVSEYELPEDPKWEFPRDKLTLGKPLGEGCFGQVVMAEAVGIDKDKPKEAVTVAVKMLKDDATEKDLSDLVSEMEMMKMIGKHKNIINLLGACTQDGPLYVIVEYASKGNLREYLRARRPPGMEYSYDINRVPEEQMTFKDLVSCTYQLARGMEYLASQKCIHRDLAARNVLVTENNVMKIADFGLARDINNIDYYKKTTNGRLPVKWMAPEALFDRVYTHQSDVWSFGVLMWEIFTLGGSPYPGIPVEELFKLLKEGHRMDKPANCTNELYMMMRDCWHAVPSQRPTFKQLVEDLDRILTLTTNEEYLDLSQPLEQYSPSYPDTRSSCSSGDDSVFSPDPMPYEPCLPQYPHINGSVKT

COc1cc(OC)c(F)c(N2Cc3cnc(NCCN4CCOCC4)cc3C3(CC3)C2=O)c1F [Example 23, 2′-(2,6-difluoro-3,5-dimethoxyphenyl)-6′-[(2-morpholin-4-ylethyl)amino]-1′,2′-dihydro-3′H-spiro[cyclopropane-1,4′-[2,7]naphthyridin]-3′-one]
< 100 nM: all assays above

COc1cc(OC)c(F)c(N2Cc3cnc(N)cc3C3(CC3)C2=O)c1F [Example 24, 6′-amino-2′-(2,6-difluoro-3,5-dimethoxyphenyl)-1′H-spiro[cyclopropane-1,4′-[2,7]naphthyridin]-3′(2′H)-one]
< 100 nM: all assays above

CNc1cc2c(cn1)CN(c1c(F)c(OC)cc(OC)c1F)C(=O)C21CC1 [Example 25, 2′-(2,6-difluoro-3,5-dimethoxyphenyl)-6′-(methylamino)-1′,2′-dihydro-3′H-spiro[cyclopropane-1,4′-[2,7]naphthyridin]-3′-one]
< 100 nM: all assays above

COc1cc(OC)c(F)c(N2Cc3cnc(NC4CCOCC4)cc3C3(CC3)C2=O)c1F [Example 26, 2′-(2,6-difluoro-3,5-dimethoxyphenyl)-6′-(tetrahydro-2H-pyran-4-ylamino)-1′,2′-dihydro-3′H-spiro[cyclopropane-1,4′-[2,7]naphthyridin]-3′-one]
< 100 nM: all assays above

COc1cc(OC)c(F)c(N2Cc3cnc(NC[C@H](C)O)cc3C3(CC3)C2=O)c1F [Example 27, (S)-2′-(2,6-difluoro-3,5-dimethoxyphenyl)-6′-(2-hydroxypropylamino)-1′H-spiro[cyclopropane-1,4′-[2,7]naphthyridin]-3′(2′H)-one]
< 100 nM: all assays above

COc1cc(OC)c(F)c(N2Cc3cnc(NCc4ccccn4)cc3C3(CC3)C2=O)c1F [Example 28, 2′-(2,6-difluoro-3,5-dimethoxyphenyl)-6′-(pyridin-2-ylmethylamino)-1′H-spiro[cyclopropane-1,4′-[2,7]naphthyridin]-3′(2′H)-one]
< 100 nM: all assays above

COc1cc(OC)c(F)c(N2Cc3cnc(N[C@H]4CCOC4)cc3C3(CC3)C2=O)c1F [Example 29, (S)-2′-(2,6-difluoro-3,5-dimethoxyphenyl)-6′-(tetrahydrofuran-3-ylamino)-1′H-spiro[cyclopropane-1,4′-[2,7]naphthyridin]-3′(2′H)-one]
< 100 nM: all assays above

COc1cc(OC)c(F)c(N2Cc3cnc(NCCN4CCN(C)CC4)cc3C3(CC3)C2=O)c1F [Example 30, 2′-(2,6-difluoro-3,5-dimethoxyphenyl)-6′-(2-(4-methylpiperazin-1-yl)ethylamino)-1′H-spiro[cyclopropane-1,4′-[2,7]naphthyridin]-3′(2′H)-one]
< 100 nM: all assays above

COC(=O)Nc1cc2c(cn1)CN(c1c(F)c(OC)cc(OC)c1F)C(=O)C21CC1 [Example 31, methyl 2′-(2,6-difluoro-3,5-dimethoxyphenyl)-3′-oxo-2′,3′-dihydro-1′H-spiro[cyclopropane-1,4′-[2,7]naphthyridine]-6′-ylcarbamate]
< 100 nM: all assays above

COc1cc(OC)c(F)c(N2Cc3cnc(Nc4cccnc4)cc3C3(CC3)C2=O)c1F [Example 32, 2′-(2,6-difluoro-3,5-dimethoxyphenyl)-6′-(pyridin-3-ylamino)-1′H-spiro[cyclopropane-1,4′-[2,7]naphthyridin]-3′(2′H)-one]
< 100 nM: all assays above

COc1cc(OC)c(F)c(N2Cc3cnc(Nc4cccc(F)c4)cc3C3(CC3)C2=O)c1F [Example 33, 2′-(2,6-difluoro-3,5-dimethoxyphenyl)-6′-(3-fluorophenylamino)-1′H-spiro[cyclopropane-1,4′-[2,7]naphthyridin]-3′(2′H)-one]
< 100 nM: all assays above

COc1cc(OC)c(F)c(N2Cc3cnc(NC4CCCC4)cc3C3(CC3)C2=O)c1F [Example 34, 6′-(cyclopentylamino)-2′-(2,6-difluoro-3,5-dimethoxyphenyl)-1′H-spiro[cyclopropane-1,4′-[2,7]naphthyridin]-3′(2′H)-one]
< 100 nM: all assays above

COc1cc(OC)c(F)c(N2Cc3cnc(NC[C@@H]4CCCO4)cc3C3(CC3)C2=O)c1F [Example 35, (S)-2′-(2,6-difluoro-3,5-dimethoxyphenyl)-6′-((tetrahydrofuran-2-yl)methylamino)-1′H-spiro[cyclopropane-1,4′-[2,7]naphthyridin]-3′(2′H)-one]
< 100 nM: all assays above

COc1cc(OC)c(F)c(N2Cc3cnc(Nc4cnn(C)c4)cc3C3(CC3)C2=O)c1F [Example 36, 2′-(2,6-difluoro-3,5-dimethoxyphenyl)-6′-(1-methyl-1H-pyrazol-4-ylamino)-1′H-spiro[cyclopropane-1,4′-[2,7]naphthyridin]-3′(2′H)-one]
< 100 nM: all assays above

COc1cc(OC)c(F)c(N2Cc3cnc(NCc4cnn(C)c4)cc3C3(CC3)C2=O)c1F [Example 37, 2′-(2,6-difluoro-3,5-dimethoxyphenyl)-6′-((1-methyl-1H-pyrazol-4-yl)methylamino)-1′H-spiro[cyclopropane-1,4′-[2,7]naphthyridin]-3′(2′H)-one]
< 100 nM: all assays above

COc1cc(OC)c(F)c(N2Cc3cnc(N[C@H](C)c4ccccc4)cc3C3(CC3)C2=O)c1F [Example 38, (R)-2′-(2,6-difluoro-3,5-dimethoxyphenyl)-6′-(1-phenylethylamino)-1′H-spiro[cyclopropane-1,4′-[2,7]naphthyridin]-3′(2′H)-one]
< 100 nM: all assays above

COc1cc(OC)c(F)c(N2Cc3cnc(NC4CCCCC4)cc3C3(CC3)C2=O)c1F [Example 39, 6′-(cyclohexylamino)-2′-(2,6-difluoro-3,5-dimethoxyphenyl)-1′H-spiro[cyclopropane-1,4′-[2,7]naphthyridin]-3′(2′H)-one]
< 100 nM: all assays above

COc1cc(OC)c(F)c(N2Cc3cnc(N[C@H]4CC[C@H](O)CC4)cc3C3(CC3)C2=O)c1F [Example 40, 2′-(2,6-difluoro-3,5-dimethoxyphenyl)-6′-(trans-4-hydroxycyclohexylamino)-1′H-spiro[cyclopropane-1,4′-[2,7]naphthyridin]-3′(2′H)-one]
< 100 nM: all assays above

COc1cc(OC)c(F)c(N2Cc3cnc(NC4CC4)cc3C3(CC3)C2=O)c1F [Example 41, 6′-(cyclopropylamino)-2′-(2,6-difluoro-3,5-dimethoxyphenyl)-1′H-spiro[cyclopropane-1,4′-[2,7]naphthyridin]-3′(2′H)-one]
< 100 nM: all assays above

COc1cc(OC)c(F)c(N2Cc3cnc(NC4CCC4)cc3C3(CC3)C2=O)c1F [Example 42, 6′-(cyclobutylamino)-2′-(2,6-difluoro-3,5-dimethoxyphenyl)-1′H-spiro[cyclopropane-1,4′-[2,7]naphthyridin]-3′(2′H)-one]
< 100 nM: all assays above

COc1cc(OC)c(F)c(N2Cc3cnc(NC4CC(F)(F)C4)cc3C3(CC3)C2=O)c1F [Example 43, 2′-(2,6-difluoro-3,5-dimethoxyphenyl)-6′-(3,3-difluorocyclobutylamino)-1′H-spiro[cyclopropane-1,4′-[2,7]naphthyridin]-3′(2′H)-one]
< 100 nM: all assays above
